# Test results published in patent US11807649B2, “Fused tetracyclic quinazoline derivatives as inhibitors of ErbB2” (EnLiven Therapeutics, Inc., priority 2021, dated 2023).
# Read-outs that look alike come from different tables or passages of the source.
# Tested on: Ba/F3 ERBB2 YVMA
# Assay: Cell viability assay (CellTiter Glo), Ba/F3 cells engineered to express ERBB2 YVMA
# Format: cell-based
# Settings: Mus musculus, BaF3, 72 h
# Protocol: Cells were treated with compounds, and cell viability was measured as a metric of kinase inhibition.
# BT-474, A431, MDA-MB-175VII, NCI-H1781, MCF7, and Ba/F3 cell lines were tested. The Ba/F3 cell line is IL-3-dependent mouse cell line derived from the C3H mouse strain. Ba/F3 cell lines were engineered to express human ERBB2 or EGFR kinases, rendering the cells IL-3 independent. The lines were generated via retroviral transduction utilizing a Moloney murine leukemia virus (MMLV) promoter, and constructs are stably integrated into the cell genome. The sequences of the ERBB2 and EGFR genes used were NCBI Reference Sequences NM 004448.3 and NM 005228.3, respectively.
# BT-474, A431, MDA-MB-175VII, NCI-H1781 and MCF7 cells were grown in the appropriate growth medium as described in Table B2 below, and harvested at 50-80% confluence. BT-474, A431, MDA-MB-175VII, NCI-H1781 and MCF7 cells were counted and seeded at 2,000 or 1,500 cells per well in 384-well tissue culture plates (see Table B2). Similarly, Ba/F3 cell lines engineered to express EGFR, ERBB2, or ERBB2 mutants were grown, harvested, counted and seeded at 3000 cells per well in 96-well plates. A subset of wells contained media only (low control, “LC”).
# Table B1 provides the growth media and number of cells seeded per well for the each cell line.
# Compounds were dissolved in DMSO and serially diluted. Serially-diluted compound or a DMSO only control (high control, “HC”) was added to the plated cells in each well. Compounds were tested at concentrations of about 10 μM to 0.51 nM, using three-fold dilutions. The final proportion of DMSO never exceeded 0.1%.
# Plates were placed in a 37° C., 5% CO2 incubator for 72 hours. Plates were then removed from the incubator and equilibrated for 15 minutes at room temperature. […] of CellTiter Glo reagent (Promega) was added to measure the relative level of metabolically active cells by quantifying intracellular ATP concentrations. Plates were incubated for 30 minutes at room temperature, and luminescence was measured. Percent viability was normalized to a vehicle control only using the following formula: % viability=100×(Lumsample−LumLC)/(LumHC−LumLC). Graphical curves were fitted using a nonlinear regression model with a sigmoidal dose response.
# [1] = Ba/F3 cells expressing human ERBB2 YVMA mutant, 72 hours, cell viability, CellTiter Glo, read-out: Ba/F3 ERBB2 YVMA, IC50
# [2] = read-out: Ba/F3 ERBB2 YVMA, IC50, nM
smiles,measurement,setting,value
"CC#CC(=O)N1CCN2C[C@H]1COc1cc3ncnc(Nc4ccc(Oc5ccn6ncnc6c5)c(C)c4)c3nc12 [Compound 18, 1-((10S)-4-((4-([1,2,4]triazolo[1,5-a]pyridin-7-yloxy)-3-methylphenyl)amino)-7,8,10,11-tetrahydro-9H-6,10-methanopyrimido[4′,5′:5,6]pyrido[3,2-b][1,4,7]oxadiazonin-9-yl)but-2-yn-1-one]",IC50,[1],21.6 nM
"CCOc1cc2ncc(C#N)c(Nc3ccc(OCc4ccccn4)c(Cl)c3)c2cc1NC(=O)/C=C/CN(C)C [Neratinib, neratinib, reference compound]",IC50,[2],3.5 nM
"Cc1ccc(Oc2ccc(Nc3ncnc4cc5c(nc34)N3CCN(C(=O)/C=C/CN(C)C)[C@H](CO5)C3)cc2C)cn1 [Compound 21, (E)-4-(dimethylamino)-1-((10S)-4-((3-methyl-4-((6-methylpyridin-3-yl)oxy)phenyl)amino)-7,8,10,11-tetrahydro-9H-6,10-methanopyrimido[4′,5′:5,6]pyrido[3,2-b][1,4,7]oxadiazonin-9-yl)but-2-en-1-one]",IC50,[1],5.23 nM
"CN(C)C/C=C/C(=O)N1CCN2C[C@H]1COc1cc3ncnc(Nc4cc(F)c(Oc5ccn6ncnc6c5)cc4F)c3nc12 [Compound 48, (E)-1-((10S)-4-((4-([1,2,4]triazolo[1,5-a]pyridin-7-yloxy)-2,5-difluorophenyl)amino)-7,8,10,11-tetrahydro-9H-6,10-methanopyrimido[4′,5′:5,6]pyrido[3,2-b][1,4,7]oxadiazonin-9-yl)-4-(dimethylamino)but-2-en-1-one]",IC50,[2],4.85 nM
"Cc1c(Oc2ccn3ncnc3c2)ccc(Nc2ncnc3cc4c(nc23)N2CCN(C(=O)/C=C/CN(C)C)[C@H](CO4)C2)c1F [Compound 35, (E)-1-((10S)-4-((4-([1,2,4]triazolo[1,5-a]pyridin-7-yloxy)-2-fluoro-3-methylphenyl)amino)-7,8,10,11-tetrahydro-9H-6,10-methanopyrimido[4′,5′:5,6]pyrido[3,2-b][1,4,7]oxadiazonin-9-yl)-4-(dimethylamino)but-2-en-1-one]",IC50,[1],1.29 nM
"Cc1cc(Nc2ncnc3cc4c(nc23)N2CCN(C(=O)/C=C/CN(C)C)[C@H](CO4)C2)ccc1Oc1ccn2ncnc2c1 [Compound 10, (E)-1-((10S)-4-((4-([1,2,4]triazolo[1,5-a]pyridin-7-yloxy)-3-methylphenyl)amino)-7,8,10,11-tetrahydro-9H-6,10-methanopyrimido[4′,5′:5,6]pyrido[3,2-b][1,4,7]oxadiazonin-9-yl)-4-(dimethylamino)but-2-en-1-one]",IC50,[1],7.02 nM
"Cc1cc(Nc2ncnc3cc4c(nc23)N2CCN(C(=O)/C=C/CN(C)C)[C@H](CO4)C2)ccc1Oc1ccc2c(c1)ncn2C [Compound 6, (E)-4-(dimethylamino)-1-((10S)-4-((3-methyl-4-((1-methyl-1H-benzo[d]imidazol-5-yl)oxy)phenyl)amino)-7,8,10,11-tetrahydro-9H-6,10-methanopyrimido[4′,5′: 5,6]pyrido[3,2-b][1,4,7]oxadiazonin-9-yl)but-2-en-1-one]",IC50,[1],15.8 nM
"C=C(F)C(=O)N1CCN2C[C@H]1COc1cc3ncnc(Nc4ccc(Oc5ccn6ncnc6c5)c(C)c4)c3nc12 [Compound 23, 1-((10S)-4-((4-([1,2,4]triazolo[1,5-a]pyridin-7-yloxy)-3-methylphenyl)amino)-7,8,10,11-tetrahydro-9H-6,10-methanopyrimido[4′,5′:5,6]pyrido[3,2-b][1,4,7]oxadiazonin-9-yl)-2-fluoroprop-2-en-1-one]",IC50,[1],222 nM
"CN(C)C/C=C/C(=O)N1CCN2C[C@H]1COc1cc3ncnc(Nc4ccc(Oc5ccn6ncnc6c5)cc4F)c3nc12 [Compound 42, (E)-1-((10S)-4-((4-([1,2,4]triazolo[1,5-a]pyridin-7-yloxy)-2-fluorophenyl)amino)-7,8,10,11-tetrahydro-9H-6,10-methanopyrimido[4′,5′:5,6]pyrido[3,2-b][1,4,7]oxadiazonin-9-yl)-4-(dimethylamino)but-2-en-1-one]",IC50,[1],10.3 nM
CC#CC(=O)N1CCN2C[C@H]1COc1cc3ncnc(Nc4ccc(Oc5ccc6c(c5)ncn6C)c(C)c4)c3cc12 [Compound 11],IC50,[1],37.7 nM
"Cc1cc(Nc2ncnc3cc4c(nc23)N2CCN(C(=O)/C=C/[C@@H](C)N(C)C)[C@H](CO4)C2)c(F)cc1Oc1ccn2ncnc2c1 [Compound 50, (4R,E)-1-((10S)-4-((4-([1,2,4]triazolo[1,5-a]pyridin-7-yloxy)-2-fluoro-5-methylphenyl)amino)-7,8,10,11-tetrahydro-9H-6,10-methanopyrimido[4′,5′:5,6]pyrido[3,2-b][1,4,7]oxadiazonin-9-yl)-4-(dimethylamino)pent-2-en-1-one]",IC50,[1],62.6 nM
"CC#CC(=O)N1CCN2C[C@H]1COc1cc3ncnc(Nc4ccc(Oc5ccn6ncnc6c5)c(C)c4)c3cc12 [Compound 12, 1-((10S)-4-((4-([1,2,4]triazolo[1,5-a]pyridin-7-yloxy)-3-methylphenyl)amino)-7,8,10,11-tetrahydro-9H-6,10-methano[1,4,7]oxadiazonino[3,2-g]quinazolin-9-yl)but-2-yn-1-one]",IC50,[1],44 nM
"Cc1cc(Nc2ncnc3cc4c(nc23)N2CCN(C(=O)/C=C/C3CN(C)C3)[C@H](CO4)C2)ccc1Oc1ccn2ncnc2c1 [Compound 45, (E)-1-((10S)-4-((4-([1,2,4]triazolo[1,5-a]pyridin-7-yloxy)-3-methylphenyl)amino)-7,8,10,11-tetrahydro-9H-6,10-methanopyrimido[4′,5′:5,6]pyrido[3,2-b][1,4,7]oxadiazonin-9-yl)-3-(1-methylazetidin-3-yl)prop-2-en-1-one]",IC50,[1],46.7 nM
"CN(C)C/C=C/C(=O)N1CCN2C[C@H]1COc1cc3ncnc(Nc4ccc(Oc5ccn6ncnc6c5)c(F)c4)c3nc12 [Compound 39, (E)-1-((10S)-4-((4-([1,2,4]triazolo[1,5-a]pyridin-7-yloxy)-3-fluorophenyl)amino)-7,8,10,11-tetrahydro-9H-6,10-methanopyrimido[4′,5′:5,6]pyrido[3,2-b][1,4,7]oxadiazonin-9-yl)-4-(dimethylamino)but-2-en-1-one]",IC50,[1],5.54 nM
"Cc1cc(Nc2ncnc3cc4c(cc23)N2CCN(C(=O)/C=C/CN(C)C)[C@@H](CO4)C2)ccc1Oc1ccn2ncnc2c1 [Compound 8, (E)-1-((10R)-4-((4-([1,2,4]triazolo[1,5-a]pyridin-7-yloxy)-3-methylphenyl)amino)-7,8,10,11-tetrahydro-9H-6,10-methano[1,4,7]oxadiazonino[3,2-g]quinazolin-9-yl)-4-(dimethylamino)but-2-en-1-one]",IC50,[1],> 500 nM
"Cc1cc(Nc2ncnc3cc4c(nc23)N2CCN(C(=O)/C=C/CN(C)C)[C@H](CO4)C2)c(F)cc1Oc1ccn2ncnc2c1 [Compound 24, (E)-1-((10S)-4-((4-([1,2,4]triazolo[1,5-a]pyridin-7-yloxy)-2-fluoro-5-methylphenyl)amino)-7,8,10,11-tetrahydro-9H-6,10-methanopyrimido[4′,5′:5,6]pyrido[3,2-b][1,4,7]oxadiazonin-9-yl)-4-(dimethylamino)but-2-en-1-one]",IC50,[1],6.4 nM
"Cc1cc(Nc2ncnc3cc4c(cc23)N2CCN(C(=O)/C=C/CN(C)C)[C@H](CO4)C2)ccc1Oc1ccn2ncnc2c1 [Compound 9, (E)-1-((10S)-4-((4-([1,2,4]triazolo[1,5-a]pyridin-7-yloxy)-3-methylphenyl)amino)-7,8,10,11-tetrahydro-9H-6,10-methano[1,4,7]oxadiazonino[3,2-g]quinazolin-9-yl)-4-(dimethylamino)but-2-en-1-one]",IC50,[1],85.9 nM
"CN(C)C/C=C/C(=O)N1CCN2C[C@H]1COc1cc3ncnc(Nc4ccc(Oc5ccn6ncnc6c5)cc4)c3nc12 [Compound 31, (E)-1-((10S)-4-((4-([1,2,4]triazolo[1,5-a]pyridin-7-yloxy)phenyl)amino)-7,8,10,11-tetrahydro-9H-6,10-methanopyrimido[4′,5′:5,6]pyrido[3,2-b][1,4,7]oxadiazonin-9-yl)-4-(dimethylamino)but-2-en-1-one]",IC50,[1],19.9 nM
"Cc1cc(Nc2ncnc3cc4c(cc23)N2CCN(C(=O)/C=C/CN(C)C)[C@H](CO4)C2)ccc1Oc1ccc2c(c1)ncn2C [Compound 7, (E)-4-(dimethylamino)-1-((10S)-4-((3-methyl-4-((1-methyl-1H-benzo[d]imidazol-5-yl)oxy)phenyl)amino)-7,8,10,11-tetrahydro-9H-6,10-methano[1,4,7]oxadiazonino[3,2-g]quinazolin-9-yl)but-2-en-1-one]",IC50,[1],78.7 nM
